One assay addresses IKZF1 protein (Homo sapiens (Human), UniProt Q13422+Q96SW2). Briefly: Western-blot assay of substrate protein degradation in hPBMC, IKZF1. It counts as cell-based. The note with it: for residual substrate protein level, IKZF1: hPBMC cells, compound 500 nM, 24 hours, Western blot. As for the experimental part:
(§1) After treating the cells with the compounds for 24 hours, the cells were collected and lysed using RIPA protein lysate containing phosphatase inhibitors. The lysate was then placed on ice for 30-60 minutes and centrifuged. The supernatant was aspirated as the extracted total cell protein. The protein concentration of the supernatant was determined using the conventional BCA (Bicinchoninic Acid) assay. The supernatant was then mixed with 4×SDS sample loading buffer, denatured at 95° C. for 5 minutes, and then subjected to SDS-PAGE electrophoresis on a polyacrylamide gel, followed by transfer to a nitrocellulose membrane (NC membrane). The membrane was blocked with blocking buffer at room temperature for 1-2 hours, and then antibody incubation and detection were carried out according to the antibody instructions provided by Cell Signaling Technology.
(§2) Half-Maximal Degradation Concentration value (the drug concentration required for degrading proteins by 50%, abbreviated as DC50) reads method: comparing the gray values of the Western blotting bands for the drug treatment with the gray values of the Western blotting band for the DMSO control, and reading the drug concentration range corresponding to the gray value of the Western blotting bands for the drug treatment which is equal to half of the gray value of the Western blotting band for the DMSO control.
(§3) DC50 value could also be calculated as follows: using software ImageJ to quantify the gray values of the Western blotting bands for the drug treatment, fitting the relationship curve between drug concentrations and gray values, and from the fitted curve, calculating the drug concentration corresponding to half of the gray value of the Western blotting band for the DMSO control.

For another assay, the target named is GSPT1 protein (Homo sapiens (Human), UniProt P15170+Q96SW2). Briefly: Western-blot assay of substrate protein degradation in hPBMC, GSPT1. It counts as cell-based. The note with it: for residual substrate protein level, GSPT1: hPBMC cells, compound 500 nM, 24 hours, Western blot. The procedure: as §1, §2, §3
Chain of GSPT1 protein (P15170 whole entry): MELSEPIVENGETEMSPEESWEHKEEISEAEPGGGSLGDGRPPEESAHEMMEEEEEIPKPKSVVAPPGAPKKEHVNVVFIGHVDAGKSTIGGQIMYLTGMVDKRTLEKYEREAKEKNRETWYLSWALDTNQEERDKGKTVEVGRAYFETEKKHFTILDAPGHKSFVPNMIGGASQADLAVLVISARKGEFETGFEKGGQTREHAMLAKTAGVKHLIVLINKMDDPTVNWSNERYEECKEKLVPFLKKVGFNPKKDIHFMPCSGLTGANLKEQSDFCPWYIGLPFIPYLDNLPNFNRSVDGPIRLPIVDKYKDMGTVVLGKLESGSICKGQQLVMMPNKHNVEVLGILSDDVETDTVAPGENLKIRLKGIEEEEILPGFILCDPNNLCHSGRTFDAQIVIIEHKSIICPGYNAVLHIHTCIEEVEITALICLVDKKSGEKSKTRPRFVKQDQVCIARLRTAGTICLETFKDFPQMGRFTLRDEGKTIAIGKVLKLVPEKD
Chain of GSPT1 protein (Q96SW2 whole entry): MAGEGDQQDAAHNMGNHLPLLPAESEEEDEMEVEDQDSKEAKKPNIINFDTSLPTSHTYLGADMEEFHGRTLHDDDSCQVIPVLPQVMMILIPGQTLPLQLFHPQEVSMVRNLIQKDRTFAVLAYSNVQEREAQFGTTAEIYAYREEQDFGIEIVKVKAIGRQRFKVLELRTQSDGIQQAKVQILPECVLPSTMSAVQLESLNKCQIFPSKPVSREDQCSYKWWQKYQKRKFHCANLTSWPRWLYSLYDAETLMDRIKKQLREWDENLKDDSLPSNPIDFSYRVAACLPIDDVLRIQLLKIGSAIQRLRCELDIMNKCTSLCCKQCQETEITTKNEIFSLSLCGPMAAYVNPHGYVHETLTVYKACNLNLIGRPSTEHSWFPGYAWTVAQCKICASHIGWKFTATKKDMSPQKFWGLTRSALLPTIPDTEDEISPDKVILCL
Chain of GSPT1 protein (Q16531 whole entry partner): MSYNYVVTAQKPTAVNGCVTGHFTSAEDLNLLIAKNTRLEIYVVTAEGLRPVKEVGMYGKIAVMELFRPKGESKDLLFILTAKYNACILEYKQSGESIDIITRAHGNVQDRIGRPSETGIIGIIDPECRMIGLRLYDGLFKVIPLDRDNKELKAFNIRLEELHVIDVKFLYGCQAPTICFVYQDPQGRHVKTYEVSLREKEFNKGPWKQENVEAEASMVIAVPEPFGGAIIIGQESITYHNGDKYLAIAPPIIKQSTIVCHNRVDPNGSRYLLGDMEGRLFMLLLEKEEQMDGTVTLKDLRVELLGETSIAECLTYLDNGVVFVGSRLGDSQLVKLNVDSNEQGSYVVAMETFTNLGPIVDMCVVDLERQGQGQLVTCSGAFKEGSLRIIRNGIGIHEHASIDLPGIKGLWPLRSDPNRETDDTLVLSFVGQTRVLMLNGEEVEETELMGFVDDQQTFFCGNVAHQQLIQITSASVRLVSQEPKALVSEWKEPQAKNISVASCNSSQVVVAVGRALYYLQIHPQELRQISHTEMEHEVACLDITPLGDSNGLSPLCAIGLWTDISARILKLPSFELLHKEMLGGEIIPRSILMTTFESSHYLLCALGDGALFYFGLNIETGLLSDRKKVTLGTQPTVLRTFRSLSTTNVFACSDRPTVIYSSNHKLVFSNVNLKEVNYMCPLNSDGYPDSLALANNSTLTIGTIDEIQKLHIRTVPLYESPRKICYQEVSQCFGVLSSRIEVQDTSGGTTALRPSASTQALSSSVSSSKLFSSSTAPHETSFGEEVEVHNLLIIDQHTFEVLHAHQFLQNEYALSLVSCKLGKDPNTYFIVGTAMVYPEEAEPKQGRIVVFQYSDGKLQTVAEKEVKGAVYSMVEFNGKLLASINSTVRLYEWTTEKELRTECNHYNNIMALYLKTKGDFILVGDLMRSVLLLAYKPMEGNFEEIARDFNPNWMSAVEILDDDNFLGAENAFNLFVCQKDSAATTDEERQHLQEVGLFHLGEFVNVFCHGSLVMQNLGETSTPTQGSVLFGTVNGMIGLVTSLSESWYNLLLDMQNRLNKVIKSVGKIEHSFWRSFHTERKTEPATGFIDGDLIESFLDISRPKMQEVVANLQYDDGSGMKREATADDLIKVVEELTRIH
Another assay addresses IKZF3 protein (Homo sapiens (Human), UniProt Q96SW2+Q9UKT9). The assay can be described thus: Western-blot assay of substrate protein degradation in hPBMC, IKZF3. The assay is classed as cell-based. Particulars: for residual substrate protein level, IKZF3: hPBMC cells, compound 500 nM, 24 hours, Western blot. The procedure:
as §1, §2, §3
In general terms: A western blot detects proteins with antibodies after separation by electrophoresis.

Assay [1] deals with human Cereblon WT GST-tagged protein (Homo sapiens (Human), UniProt Q96SW2). The assay can be described thus: CRBN-binding affinity, HTRF (CEREBLON BINDING kit). In a few lines:
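HTRF competition readout: compounds compete with a thalidomide-Re conjugate for GST-tagged wild-type human CRBN detected via Eu-labelled anti-GST antibody. Inhibition rate derived relative to protein-free blank wells.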
On the technique in general: TR-FRET usually uses a lanthanide donor and a delayed reading to cut background.

Where [2] appears, read: hPBMC, 24 h, serially diluted 0.03-1000 nM.

pIC50: −log10 of the molar value.

Chain of IKZF3 protein (Q9UKT9 whole entry): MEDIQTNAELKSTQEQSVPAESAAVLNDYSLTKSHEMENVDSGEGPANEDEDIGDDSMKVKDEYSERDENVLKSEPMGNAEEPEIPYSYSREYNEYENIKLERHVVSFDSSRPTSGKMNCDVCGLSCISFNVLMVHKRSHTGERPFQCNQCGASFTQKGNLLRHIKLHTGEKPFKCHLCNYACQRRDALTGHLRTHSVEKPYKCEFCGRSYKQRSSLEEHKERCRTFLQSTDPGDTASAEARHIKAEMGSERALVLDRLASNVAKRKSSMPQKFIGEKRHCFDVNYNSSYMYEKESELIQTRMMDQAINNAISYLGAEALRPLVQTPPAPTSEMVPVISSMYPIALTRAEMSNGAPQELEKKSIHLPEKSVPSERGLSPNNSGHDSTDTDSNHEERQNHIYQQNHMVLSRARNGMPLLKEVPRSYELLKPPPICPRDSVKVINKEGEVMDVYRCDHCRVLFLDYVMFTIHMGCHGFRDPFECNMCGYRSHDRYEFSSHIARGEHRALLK
Chain of IKZF3 protein (Q96SW2 whole entry): as the sequence (Q96SW2 whole entry) above
Chain of IKZF3 protein (Q16531 whole entry partner): as the sequence (Q16531 whole entry partner) above
Chain of IKZF1 protein (Q13422 whole entry): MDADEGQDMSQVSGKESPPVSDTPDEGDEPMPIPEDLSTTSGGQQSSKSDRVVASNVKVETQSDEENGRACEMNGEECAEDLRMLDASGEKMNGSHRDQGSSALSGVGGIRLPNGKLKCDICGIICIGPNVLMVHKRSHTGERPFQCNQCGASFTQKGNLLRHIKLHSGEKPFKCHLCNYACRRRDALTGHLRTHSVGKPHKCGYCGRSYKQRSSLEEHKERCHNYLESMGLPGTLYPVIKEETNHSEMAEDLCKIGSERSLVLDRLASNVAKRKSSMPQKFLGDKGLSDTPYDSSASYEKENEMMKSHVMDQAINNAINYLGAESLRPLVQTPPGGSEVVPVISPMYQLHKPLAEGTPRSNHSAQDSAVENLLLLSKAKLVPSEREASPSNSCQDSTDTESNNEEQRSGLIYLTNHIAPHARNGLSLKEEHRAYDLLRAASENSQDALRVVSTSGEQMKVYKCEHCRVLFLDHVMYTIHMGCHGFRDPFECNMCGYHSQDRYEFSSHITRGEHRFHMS
Chain of IKZF1 protein (Q96SW2 whole entry): as the sequence (Q96SW2 whole entry) above
Chain of IKZF1 protein (Q16531 whole entry partner): as the sequence (Q16531 whole entry partner) above
Chain of human Cereblon WT GST-tagged protein (Q96SW2 whole entry): as the sequence (Q96SW2 whole entry) above

What is called pIC50 is the negative decadic logarithm of the IC50, by convention in mol/L. Consider `O=C1CCC(N2Cc3cc(CN4CCN(Cc5ccccc5-c5ccc(F)cc5)CC4)cc(F)c3C2=O)C(=O)N1` (stereo not drawn) [GT-05604, 3-(7-fluoro-5-((4-((4′-fluoro-[1,1′-biphenyl]-2-yl)methyl)piperazin-1-yl)methyl)-1-oxoisoindolin-2-yl)piperidine-2,6-dione], for which the “residual substrate protein level, IKZF1” value at IKZF1 protein is recorded as “B (B represents a residual substrate protein level of >50%)”. For the same compound, the “residual substrate protein level, GSPT1” value on GSPT1 protein is reported as “A (A represents a residual substrate protein level of <50%)”. Also, the “residual substrate protein level, IKZF3” value at IKZF3 protein is on record as “B (B represents a residual substrate protein level of >50%)”. In assay [1], the pIC50 is 6.14.
On to `O=C1CCC(N2Cc3c(ccc(CN4CCN(C(=O)C5=C(c6ccc(F)cc6)CCCC5)CC4)c3F)C2=O)C(=O)N1` (stereo not drawn) [GT-05472, 3-(4-fluoro-5-((4-(4′-fluoro-3,4,5,6-tetrahydro-[1,1′-biphenyl]-2-carbonyl)piperazin-1-yl)methyl)-1-oxoisoindolin-2-yl)piperidine-2,6-dione], for which, on IKZF1 protein, the “residual substrate protein level, IKZF1” value is “B (B represents a residual substrate protein level of >50%)”. On GSPT1 protein, the “residual substrate protein level, GSPT1” value is recorded as “A (A represents a residual substrate protein level of <50%)”. Further, the “residual substrate protein level, IKZF3” value on IKZF3 protein is reported as “B (B represents a residual substrate protein level of >50%)”. Moreover, the pIC50 in assay [1] was 5.95.
As to `O=C1CCC(N2Cc3cc(C(=O)N4CC5CCC4CN5Cc4ccccc4-c4ccc(Cl)cc4)ccc3C2=O)C(=O)N1` (stereo not drawn) [GT-05622, 3-(5-(5-((4′-chloro-[1,1′-biphenyl]-2-yl)methyl)-2,5-diazabicyclo[2.2.2]octane-2-carbonyl)-1-oxoisoindolin-2-yl)piperidine-2,6-dione], the “residual substrate protein level, IKZF1” value on IKZF1 protein is listed as “B (B represents a residual substrate protein level of >50%)”. The “residual substrate protein level, GSPT1” value on GSPT1 protein is recorded as “A (A represents a residual substrate protein level of <50%)”. Further, the “residual substrate protein level, IKZF3” value on IKZF3 protein is “B (B represents a residual substrate protein level of >50%)”. This compound gave a pIC50 in assay [1] of 6.04.
Regarding `O=C1CCC(N2Cc3cc(CN4CC5(CCN(Cc6ccccc6-c6ccc(Cl)cc6)CC5)C4)ccc3C2=O)C(=O)N1` (stereo not drawn) [GT-05612, 3-(5-((7-((4′-chloro-[1,1′-biphenyl]-2-yl)methyl)-2,7-diazaspiro[3.5]nonan-2-yl)methyl)-1-oxoisoindolin-2-yl)piperidine-2,6-dione], the “residual substrate protein level, IKZF1” value at IKZF1 protein is reported as “A (A represents a residual substrate protein level of <50%)”. At GSPT1 protein, the “residual substrate protein level, GSPT1” value is recorded as “B (B represents a residual substrate protein level of >50%)”. Further, at IKZF3 protein, the “residual substrate protein level, IKZF3” value is “A (A represents a residual substrate protein level of <50%)”. This compound also gave a pIC50 in assay [1] of 6.19.
Regarding `O=C1CCC(N2Cc3cc(CN4C5CC4CN(C(=O)c4ccccc4-c4ccc(Cl)cc4)C5)ccc3C2=O)C(=O)N1` (stereo not drawn) [GT-05665, 3-(5-((3-(4′-chloro-[1,1′-biphenyl]-2-carbonyl)-3,6-diazabicyclo[3.1.1]heptan-6-yl)methyl)-1-oxoisoindolin-2-yl)piperidine-2,6-dione], the “residual substrate protein level, IKZF1” value at IKZF1 protein was “B (B represents a residual substrate protein level of >50%)”. Moreover, the “residual substrate protein level, GSPT1” value on GSPT1 protein is recorded as “A (A represents a residual substrate protein level of <50%)”. Besides, at IKZF3 protein, the “residual substrate protein level, IKZF3” value was “B (B represents a residual substrate protein level of >50%)”. In assay [1], this compound had a pIC50 of 6.22.
In the case of `O=C1CCC(N2Cc3cc(C(=O)N4C5CC4CN(C(=O)C4=C(c6ccc(F)cc6)CCCC4)C5)ccc3C2=O)C(=O)N1` (stereo not drawn) [GT-05449, 3-(5-(3-(4′-fluoro-3,4,5,6-tetrahydro-[1,1′-biphenyl]-2-carbonyl)-3,6-diazabicyclo[3.1.1]heptane-6-carbonyl)-1-oxoisoindolin-2-yl)piperidine-2,6-dione], the “residual substrate protein level, IKZF1” value on IKZF1 protein is on record as “B (B represents a residual substrate protein level of >50%)”. Besides, the “residual substrate protein level, GSPT1” value on GSPT1 protein is “A (A represents a residual substrate protein level of <50%)”. At IKZF3 protein, the “residual substrate protein level, IKZF3” value is reported as “B (B represents a residual substrate protein level of >50%)”. In assay [1], this compound showed a pIC50 of 5.77.
Regarding `O=C1CCC(N2Cc3cc(CN4CCN(C(=O)c5ccccc5-c5ccc(F)cc5)CC4)ccc3C2=O)C(=O)N1` (stereo not drawn) [GT-04194, 3-(5-((4-(4′-fluoro-[1,1′-biphenyl]-2-carbonyl)piperazin-1-yl)methyl)-1-oxoisoindolin-2-yl)piperidine-2,6-dione], the “residual substrate protein level, IKZF1” value at IKZF1 protein was “B (B represents a residual substrate protein level of >50%)”. Also, on IKZF1 protein (setting [2]), the “concentration at which significant degradation effects on IKZF1 protein are exhibited (FIG. 1)” value is recorded as “below 30 nM”. For the same compound, the “residual substrate protein level, GSPT1” value on GSPT1 protein was “A (A represents a residual substrate protein level of <50%)”. Besides, the “concentration at which significant degradation effects on GSPT1 protein are exhibited (FIG. 1)” value at GSPT1 protein (setting [2]) is listed as “below 30 nM”. At IKZF3 protein, the “residual substrate protein level, IKZF3” value is given as “A (A represents a residual substrate protein level of <50%)”. Besides, on IKZF3 protein (setting [2]), the “concentration at which significant degradation effects on IKZF3 protein are exhibited (FIG. 1)” value was “below 30 nM”. Further, the pIC50 in assay [1] is 5.94.
With `CC1(C)CCC(C(=O)N2CCCN(Cc3ccc4c(c3)CN(C3CCC(=O)NC3=O)C4=O)CC2)=C(c2ccc(Cl)cc2)C1` (stereo not drawn) [GT-05680, 3-(5-((4-(4′-chloro-5,5-dimethyl-3,4,5,6-tetrahydro-[1,1′-biphenyl]-2-carbonyl)-1,4-diazepan-1-yl)methyl)-1-oxoisoindolin-2-yl)piperidine-2,6-dione], the “residual substrate protein level, IKZF1” value at IKZF1 protein was “B (B represents a residual substrate protein level of >50%)”. Also, at GSPT1 protein, the “residual substrate protein level, GSPT1” value is “B (B represents a residual substrate protein level of >50%)”. Moreover, the “residual substrate protein level, IKZF3” value at IKZF3 protein was “A (A represents a residual substrate protein level of <50%)”. In assay [1], this compound had a pIC50 of 6.01.
Take `CC1(C)CCC(CN2CC3CCC2CN3Cc2ccc3c(c2F)CN(C2CCC(=O)NC2=O)C3=O)=C(c2ccc(Cl)cc2)C1` (stereo not drawn) [GT-04168, 3-(5-((5-((4′-chloro-5,5-dimethyl-3,4,5,6-tetrahydro-[1,1′-biphenyl]-2-yl)methyl)-2,5-diazabicyclo[2.2.2]octan-2-yl)methyl)-4-fluoro-1-oxoisoindolin-2-yl)piperidine-2,6-dione]: the “residual substrate protein level, IKZF1” value on IKZF1 protein is recorded as “B (B represents a residual substrate protein level of >50%)”. Moreover, the “residual substrate protein level, GSPT1” value on GSPT1 protein is reported as “A (A represents a residual substrate protein level of <50%)”. Besides, on IKZF3 protein, the “residual substrate protein level, IKZF3” value is on record as “B (B represents a residual substrate protein level of >50%)”. This compound also gave a pIC50 in assay [1] of 6.26.
Consider `O=C1CCC(N2Cc3cc(CN4CC5CN(Cc6ccccc6-c6ccc(Cl)cc6)CC5C4)ccc3C2=O)C(=O)N1` (stereo not drawn) [GT-05613, 3-(5-((5-((4′-chloro-[1,1′-biphenyl]-2-yl)methyl)hexahydropyrrolo[3,4-c]pyrrol-2(1H)-yl)methyl)-1-oxoisoindolin-2-yl)piperidine-2,6-dione], for which, at IKZF1 protein, the “residual substrate protein level, IKZF1” value is “B (B represents a residual substrate protein level of >50%)”. Besides, the “residual substrate protein level, GSPT1” value at GSPT1 protein is reported as “B (B represents a residual substrate protein level of >50%)”. The “residual substrate protein level, IKZF3” value at IKZF3 protein was “A (A represents a residual substrate protein level of <50%)”. Besides, in assay [1], the pIC50 is 6.23.
Turning to `CC1(C)CCC(CN2CC3CCC2CN3Cc2ccc3c(c2)CN(C2CCC(=O)NC2=O)C3=O)=C(c2ccc(Cl)cc2)C1` (stereo not drawn) [GT-04167, 3-(5-((5-((4′-chloro-5,5-dimethyl-3,4,5,6-tetrahydro-[1,1′-biphenyl]-2-yl)methyl)-2,5-diazabicyclo[2.2.2]octan-2-yl)methyl)-1-oxoisoindolin-2-yl)piperidine-2,6-dione], the “residual substrate protein level, IKZF1” value on IKZF1 protein is “B (B represents a residual substrate protein level of >50%)”. Also, the “residual substrate protein level, GSPT1” value at GSPT1 protein was “B (B represents a residual substrate protein level of >50%)”. Moreover, the “residual substrate protein level, IKZF3” value at IKZF3 protein is recorded as “B (B represents a residual substrate protein level of >50%)”. Also, in assay [1], the pIC50 was 6.18.
Consider `CC1(C)CCC(CN2CCN(Cc3ccc4c(c3)C(=O)N(C3CCC(=O)NC3=O)C4=O)CC2)=C(c2ccc(F)cc2)C1` (stereo not drawn) [GT-05395, 2-(2,6-dioxopiperidin-3-yl)-5-((4-((4′-fluoro-5,5-dimethyl-3,4,5,6-tetrahydro-[1,1′-biphenyl]-2-yl)methyl)piperazin-1-yl)methyl)isoindoline-1,3-dione], for which, on IKZF1 protein, the “residual substrate protein level, IKZF1” value is “B (B represents a residual substrate protein level of >50%)”. Moreover, at GSPT1 protein, the “residual substrate protein level, GSPT1” value is listed as “A (A represents a residual substrate protein level of <50%)”. On IKZF3 protein, the “residual substrate protein level, IKZF3” value is recorded as “A (A represents a residual substrate protein level of <50%)”. In assay [1], the pIC50 was 5.79.

The values above are taken from patent US20260028326A1, “COMPOUND BASED ON ISOINDOLINE-SUBSTITUTED GLUTARIMIDE BACKBONE AND USE THEREOF” (GLUETACS THERAPEUTICS (SHANGHAI) CO., LTD., priority 2022, published 2026).
